In paper PMC9235088, “Characterization of a new L-carnosine synthase mined from deep-sea sediment metagenome” (Microbial Cell Factories, 2022):

Tested on: T1, gene_236976 product (L-carnosine synthase, L-aminopeptidase)
T1 construct: codon-optimised synthetic gene in pET-26b (NcoI/XhoI), his6-tagged, E. coli BL21(DE3), Ni-agarose purified
Assay: HPLC of L-carnosine formed, Michaelis-Menten fit
Format: biochemical, metagenome: deep-sea sediment
Settings: 100 mM β-AlaOMe, 0-400 mM L-histidine; assay buffer Na2CO3/NaHCO3 pH 10.0, 30 °C; read-out: L-histidine^b / Km
Excerpt: HPLC of L-carnosine formed, Michaelis-Menten fit on gene_236976 product (L-carnosine synthase, L-aminopeptidase)

Compound N[C@@H](Cc1cnc[nH]1)C(=O)O [L-histidine] has a Km of 7.73 ± 0.29 mM.
